Results published in patent US20080118979A1, “Methods of regulating expression of genes or of gene products using substituted tetracycline compounds” (Paratek Pharmaceuticals, Inc., priority 2006, published 2008).

Tests used:
rtTA2-MT2 = assay: rtTA-mediated gene activation, luciferase positive cell line MT2; format: cell-based
From the text: FIGS. 2A-2D show a comparison of doxycycline and 9-t-butyl doxcycline in 34R and MT2 rtTA mutants. FIGS. 2A and 2B show the effect of doxycyline on 34R and MT2 mutants, respectively. FIGS. 2C and 2D show the effect of 9-t-butyl doxycycline on 34R and MT2 mutants, respectively.

[1] = Mansuy and Bujard Curr. Op. Neurobiol. 10:593-96; cited from earlier work
[2] = tested on: transactivator fusion protein; settings: as demonstrated in U.S. Pat. No. 5,789,156; cited from earlier work
[3] = tested on: tetR, luxCDABE operon under the regulation of the tetA promotor/operator; assay: JE305K+pTetLux1 tet detection system (Klux); format: cell-based
From the text: In another embodiment, a tetracycline compound of the invention can be used to regulate transcription of a gene or gene product under the control of a native Tet operator and in the presence of a native TetR in a cell. In one embodiment, the invention pertains to such a cell. For example, JE305K is a strain that has disrupted acrB and waaP genes and comprises a plasmid which contains tetR, and the luxCDABE operon (from P. luminescens) under the regulation of the tetA promotor/operator.
The substituted tetracycline compounds were examined in a dose response analysis using the JE305K+pTetLux1 tet detection system. JE305K is a strain that has disrupted acrB and waaP genes. pTetLux1 is a plasmid which contains tetR, and has the luxCDABE operon (from P. luminescens) under the regulation of the tetA promotor/operator. The plasmid was obtained from the University of Turku, Finland.

With 5-phenylcarbamate doxcycline the “activation of rtTA2s-M2 compared with doxycycline” value (rtTA2-MT2) was “two fold better activator”.
For C[C@H]1c2cccc(O)c2C(=O)C2=C(O)[C@]3(O)C(=O)C(C(N)=O)=C(O)[C@@H](N(C)C)[C@@H]3[C@@H](O)[C@@H]21 [doxycycline], the “penetration of the blood-brain barrier” value [1] is listed as “limited penetration of the blood-brain barrier”.
For Cc1c2c(c(O)c3c(O)cccc13)C(=O)[C@]1(O)C(=O)C(C(N)=O)=C(O)[C@@H](N(C)C)[C@@H]1C2 [anhydrotetracycline], the “strength as inducing agent” value [2] is given as “strong inducing agents”.
In the case of CCCC#Cc1ccc(O)c2c1C[C@H]1C[C@H]3[C@H](N(C)C)C(O)=C(C(N)=O)C(=O)[C@@]3(O)C(O)=C1C2=O, the “activity in the JE305K+pTetLux1 assay” value [3] is reported as “active”.
